Test results taken from article PMC9090415, “Discovery of small molecule inhibitors of Plasmodium falciparum apicoplast DNA polymerase” (Journal of Enzyme Inhibition and Medicinal Chemistry, 2022).

Biological target: P. falciparum apicoplast DNA polymerase (Pf-apPOL) (Plasmodium falciparum, UniProt Q8ILY1)
Assay: Fluorescence-based high-throughput DNA polymerase assay (molecular beacon), primary screen and dose-response
Type: biochemical
Procedure, shortened: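 Single-point screening used 10 µM compound with 20 nM polymerase, 20 nM hairpin substrate and 6 µM dNTPs for 90 min at 25 °C. Confirmatory titrations (2.5–80 µM) followed fluorescence at three times, and IC50 was derived from a fit including a cooperativity term n.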

P. falciparum apicoplast DNA polymerase (Pf-apPOL), sequence (Q8ILY1 entry or part of it): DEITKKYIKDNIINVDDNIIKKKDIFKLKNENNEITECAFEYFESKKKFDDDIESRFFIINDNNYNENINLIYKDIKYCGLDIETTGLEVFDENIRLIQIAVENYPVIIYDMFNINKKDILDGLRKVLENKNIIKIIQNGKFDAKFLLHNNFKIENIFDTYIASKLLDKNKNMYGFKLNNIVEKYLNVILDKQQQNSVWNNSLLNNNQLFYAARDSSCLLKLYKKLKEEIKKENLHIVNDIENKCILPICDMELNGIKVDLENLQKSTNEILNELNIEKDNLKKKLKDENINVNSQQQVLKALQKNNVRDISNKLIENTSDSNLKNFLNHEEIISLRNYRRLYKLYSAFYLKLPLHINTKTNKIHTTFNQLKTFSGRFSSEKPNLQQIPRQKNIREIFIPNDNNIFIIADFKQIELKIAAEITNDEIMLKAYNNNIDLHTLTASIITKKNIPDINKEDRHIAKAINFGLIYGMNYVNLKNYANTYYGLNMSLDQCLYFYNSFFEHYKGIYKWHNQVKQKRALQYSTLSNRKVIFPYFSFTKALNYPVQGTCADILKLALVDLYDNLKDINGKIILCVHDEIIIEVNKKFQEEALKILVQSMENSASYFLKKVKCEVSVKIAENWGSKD

CO/N=C(\C(=O)N[C@@H]1C(=O)N2C(C(=O)[O-])=C(CSc3nc(=O)c([O-])nn3C)CSC12)c1csc(N)n1.[Na+].[Na+] (stereo partly drawn) [Molecule 83, CO/N=C(/c1csc(n1)N)\C(=O)N[C@@H]1C(=O)N2C1SCC(=C2C(=O)[O-])CSc1nc(=O)c(nn1C)[O-].[Na+].[Na+]]
DNA Pol (186 hits, value of the hit list (primary screen); unit not given; 90 min, 10 µM): 48
% inhibition Apo pol 10' (DRC-1; 10'; concentration 2.5): 18.7657%
% inhibition Apo pol 10' (DRC-1; 10'; concentration 5): 26.0446%
% inhibition Apo pol 10' (DRC-1; 10'; concentration 10): 38.6298%
% inhibition Apo pol 10' (DRC-1; 10'; concentration 20): 50.9335%
% inhibition Apo pol 10' (DRC-1; 10'; concentration 40): 64.2256%
% inhibition Apo pol 10' (DRC-1; 10'; concentration 80): 74.1492%
% inhibition Apol 90' (DRC-1; 90'; concentration 2.5): -5.899%
% inhibition Apol 90' (DRC-1; 90'; concentration 5): -4.018%
% inhibition Apol 90' (DRC-1; 90'; concentration 10): 2.565%
% inhibition Apol 90' (DRC-1; 90'; concentration 20): 10.9979%
% inhibition Apol 90' (DRC-1; 90'; concentration 40): 25.6327%
% inhibition Apol 90' (DRC-1; 90'; concentration 80): 43.9979%
% inhibition apPOL 180' (DRC-1; 180'; concentration 2.5): -15.6799%
% inhibition apPOL 180' (DRC-1; 180'; concentration 5): -16.0147%
% inhibition apPOL 180' (DRC-1; 180'; concentration 10): -9.688%
% inhibition apPOL 180' (DRC-1; 180'; concentration 20): -2.55%
% inhibition apPOL 180' (DRC-1; 180'; concentration 40): 10.5527%
% inhibition apPOL 180' (DRC-1; 180'; concentration 80): 28.4912%
% inhibition Apo pol 5' (DRC-2, 5', concentration 2.5): 1.37%
% inhibition Apo pol 5' (DRC-2, 5', concentration 5): 6%
% inhibition Apo pol 5' (DRC-2, 5', concentration 10): 18%
% inhibition Apo pol 5' (DRC-2, 5', concentration 20): 30%
% inhibition Apo pol 5' (DRC-2, 5', concentration 40): 42%
% inhibition Apo pol 5' (DRC-2, 5', concentration 80): 54%
% inhibition Apol 40' (DRC-2, 40', concentration 2.5): -6%
% inhibition Apol 40' (DRC-2, 40', concentration 5): -1.68%
% inhibition Apol 40' (DRC-2, 40', concentration 10): 9%
% inhibition Apol 40' (DRC-2, 40', concentration 20): 20%
% inhibition Apol 40' (DRC-2, 40', concentration 40): 37%
% inhibition Apol 40' (DRC-2, 40', concentration 80): 59%
% inhibition ApPOL 90' (DRC-2, 90', concentration 2.5): -8%
% inhibition ApPOL 90' (DRC-2, 90', concentration 5): -7%
% inhibition ApPOL 90' (DRC-2, 90', concentration 10): 1.87%
% inhibition ApPOL 90' (DRC-2, 90', concentration 20): 12%
% inhibition ApPOL 90' (DRC-2, 90', concentration 40): 30%
% inhibition ApPOL 90' (DRC-2, 90', concentration 80): 56%
% inhibition apPOL 180' (DRC-2, 180', concentration 2.5): -10%
% inhibition apPOL 180' (DRC-2, 180', concentration 5): -12%
% inhibition apPOL 180' (DRC-2, 180', concentration 10): -7%
% inhibition apPOL 180' (DRC-2, 180', concentration 20): 5%
% inhibition apPOL 180' (DRC-2, 180', concentration 40): 21%
% inhibition apPOL 180' (DRC-2, 180', concentration 80): 48%
% inhibition Apo pol 5' (DRC-2; 5'; concentration 20): 30%
% inhibition ApPOL 90' (DRC-2; 90'; concentration 5): -7%
% inhibition ApPOL 90' (DRC-2; 90'; concentration 40): 30%
% inhibition apPOL 180' (DRC-2; 180'; concentration 10): -7%
DNA Pol (primary screen value, 'DNA Pol' only; 90 min, 10 µM): 48
